Reference: patent US10294202B2, “Pyrrolidinones as herbicides” (FMC Corporation, priority 2013, dated 2019)

Tests used:
[1] = system: ragweed; experiment: Test A pre-/postemergence herbicide test; type: in vivo, Ambrosia elatior
From the text: (§1) Seeds of plant species selected from bamyardgrass (Echinochloa crus-galli), kochia (Kochia scoparia), ragweed (common ragweed, Ambrosia elatior), ryegrass, Italian (Italian ryegrass, Lolium multiflorum), crabgrass, large (large crabgrass Digitaria sanguinalis), giant foxtail (Setaria faberii), morningglory (Ipomoea spp.), pigweed (Amaranthus retroflexus), velvetleaf (Abutilon theophrasti), wheat (Triticum aestivum), and corn (Zea mays) were planted into a blend of loam soil and sand and treated preemergence with a directed soil spray using test chemicals formulated in a non-phytotoxic solvent mixture which included a surfactant. At the same time, plants selected from these crop and weed species and also blackgrass (Alopecurus myosuroides), and galium (catchweed bedstraw, Galium aparine) were planted in pots containing the same blend of loam soil and sand and treated with postemergence applications of test chemicals formulated in the same manner. Plants ranged in height from 2 to 10 cm and were in the one- to two-leaf stage for the postemergence treatment. Treated plants and untreated controls were maintained in a greenhouse for approximately 10 days, after which time all treated plants were compared to untreated controls and visually evaluated for injury. Plant response ratings, summarized in Table A, are based on a 0 to 100 scale where 0 is no effect and 100 is complete control. A dash (-) response means no test result.

[2] = system: galium; experiment: Test A postemergence herbicide test; type: in vivo, Galium aparine; settings: for Plant response rating, Galium: 125 g ai/ha; for Galium plant response rating (0 to 100 scale, 0 is no effect, 100 is complete control): 500 g ai/ha
From the text: At the same time, plants selected from these crop and weed species and also blackgrass (Alopecurus myosuroides), and galium (catchweed bedstraw, Galium aparine) were planted in pots containing the same blend of loam soil and sand and treated with postemergence applications of test chemicals formulated in the same manner. Plants ranged in height from 2 to 10 cm and were in the one- to two-leaf stage for the postemergence treatment. Treated plants and untreated controls were maintained in a greenhouse for approximately 10 days, after which time all treated plants were compared to untreated controls and visually evaluated for injury. Plant response ratings, summarized in Table A, are based on a 0 to 100 scale where 0 is no effect and 100 is complete control. A dash (-) response means no test result.

[3] = system: corn; experiment: Test A pre-/postemergence herbicide test; type: in vivo, Zea mays; settings: Postemergence
Procedure, shortened: (§2)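 Planted in loam–sand blend; treated the same day preemergence by directed soil spray, while separately grown plants at one- to two-leaf stage got postemergence spray. Compared visually with untreated controls after approximately 10 days; 100 means complete control.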

[4] = system: wheat; experiment: Test A pre-/postemergence herbicide test; type: in vivo, Triticum aestivum; settings: Postemergence; for Plant response rating, Wheat: 125 g ai/ha; for Wheat plant response rating (0 to 100 scale, 0 is no effect, 100 is complete control): 500 g ai/ha
Procedure, shortened: as §2

[5] = system: barnyardgrass; experiment: Test A pre-/postemergence herbicide test; type: in vivo, Echinochloa crus-galli
Procedure, shortened: as §2

[6] = system: giant foxtail; experiment: Test A pre-/postemergence herbicide test; type: in vivo, Setaria faberii
Procedure, shortened: as §2

[7] = system: pigweed; experiment: Test A pre-/postemergence herbicide test; type: in vivo, Amaranthus retroflexus
Procedure, shortened: as §2

[8] = system: kochia; experiment: Test A pre-/postemergence herbicide test; type: in vivo, Kochia scoparia
Procedure, shortened: as §2

[9] = system: ryegrass, Italian; experiment: Test A pre-/postemergence herbicide test; type: in vivo, Lolium multiflorum
From the text: as §1

[10] = system: blackgrass; experiment: Test A postemergence herbicide test; type: in vivo, Alopecurus myosuroides
Procedure, shortened: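 Visual injury rating, 0 (no effect) to 100 (complete control), versus untreated controls ~10 days after treatment. Postemergence spray applied at one- to two-leaf stage, plants 2–10 cm tall, potted in loam soil/sand. Greenhouse-held.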

[11] = Postemergence, 125 g ai/ha, visual rating on 0 to 100 scale (0 no effect, 100 complete control), approx. 10 days
[12] = Preemergence, 125 g ai/ha, 0 to 100 scale where 0 is no effect and 100 is complete control
[13] = Preemergence, 500 g ai/ha, visual rating on 0 to 100 scale (0 no effect, 100 complete control)
[14] = visual rating on 0 to 100 scale (0 no effect, 100 complete control), approx. 10 days
[15] = 125 g ai/ha, visual rating on 0 to 100 scale (0 no effect, 100 complete control), approx. 10 days
[16] = 500 g ai/ha, 0 to 100 scale (0 no effect, 100 complete control)
[17] = Postemergence, 500 g ai/ha, 0 to 100 scale (0 no effect, 100 complete control)
[18] = 125 g ai/ha, visual rating, 0 to 100 scale, 0 no effect, 100 complete control, approximately 10 days, preemergence
[19] = Postemergence, 125 g ai/ha, 0 to 100 scale, 0 is no effect, 100 is complete control
[20] = preemergence, 500 g ai/ha, 0 to 100 scale, 0 is no effect and 100 is complete control
[21] = 0 to 100 scale, 0 is no effect, 100 is complete control
[22] = 125 g ai/ha, 0 to 100 scale, 0 is no effect, 100 is complete control

Question: What does the source list for CC(C)(C)c1cccc(C2CNC(=O)C2C(=O)Nc2ccccc2F)c1 (stereo not drawn) [Compound 347]?
Answer: Plant response rating, Ragweed [1, 11]: 0; Plant response rating, Ragweed [1, 12]: 0; Ragweed plant response rating [1, 13]: 0; Plant response rating, Galium [2, 14]: 0; Plant response rating, Corn [3, 15]: 0; Plant response rating, Corn [3, 16]: 0; Plant response rating, Wheat [4, 14]: 0; Plant response rating, Barnyardgrass [5, 11]: 50; Plant response rating, Barnyardgrass [5, 17]: 50; Plant response rating, Barnyardgrass [5, 12]: 50; Barnyardgrass plant response rating [5, 13]: 90; Plant response rating, Foxtail, Giant [6, 11]: 20; Plant response rating, Foxtail, Giant [6, 17]: 20; Plant response rating, Foxtail, Giant [6, 12]: 20; Foxtail, Giant plant response rating [6, 13]: 40; Plant response rating, Pigweed [7, 11]: 0; Plant response rating, Pigweed [7, 12]: 0; Pigweed plant response rating [7, 13]: 0; Plant response rating, Kochia [8, 11]: 0; Plant response rating, Kochia [8, 12]: 0; Kochia plant response rating [8, 13]: 0; Plant response rating, Ryegrass, Italian [9, 11]: 0; Plant response rating, Ryegrass, Italian [9, 12]: 0; Ryegrass, Italian plant response rating [9, 13]: 0; Plant response rating, Blackgrass [10, 15]: 0; Plant response rating, Blackgrass [10, 16]: 0

Question: Which “Plant response rating, Ragweed” value [1, 18] does the source give for O=C1NCC(c2ccc(OC(F)(F)C(F)F)cc2)C1C(=O)Nc1ccc(F)c(F)c1F (racemic) [Compound 174] here?
Answer: Its value is 0.

Question: What about the “Plant response rating, Ragweed” value [1, 19] of the same compound?
Answer: The value was 0.

Question: What about the “Ragweed plant response rating (0 to 100 scale, 0 is no effect, 100 is complete control)” value ([1]; Postemergence, 500 g ai/ha) of the same compound?
Answer: The value was 0.

Question: What about the “Plant response rating, Ragweed” value [1, 20] of the same compound?
Answer: Its value is 0.

Question: What about the “Plant response rating, Galium” value [2, 21] of the same compound?
Answer: The value was 0.

Question: And the “Galium plant response rating (0 to 100 scale, 0 is no effect, 100 is complete control)” value [2]?
Answer: The value was 0.

Question: What about the “Plant response rating, Corn” value [3, 22] of the same compound?
Answer: Its value is 0.

Question: And the “Corn plant response rating (0 to 100 scale, 0 is no effect, 100 is complete control)” value ([3]; 500 g ai/ha)?
Answer: Its value is 0.

Question: What about the “Plant response rating, Wheat” value [4, 21] of the same compound?
Answer: The value was 0.

Question: And the “Wheat plant response rating (0 to 100 scale, 0 is no effect, 100 is complete control)” value [4]?
Answer: The value was 0.

Question: What about the “Plant response rating, Barnyardgrass” value [5, 18] of the same compound?
Answer: Its value is 0.

Question: What about the “Plant response rating, Barnyardgrass” value [5, 19] of the same compound?
Answer: Its value is 0.

Question: What about the “Barnyardgrass plant response rating (0 to 100 scale, 0 is no effect, 100 is complete control)” value ([5]; Postemergence, 500 g ai/ha) of the same compound?
Answer: The value was 20.

Question: What about the “Plant response rating, Barnyardgrass” value [5, 20] of the same compound?
Answer: Its value is 20.

Question: What about the “Plant response rating, Foxtail, Giant” value [6, 18] of the same compound?
Answer: Its value is 30.

Question: What about the “Plant response rating, Foxtail, Giant” value [6, 19] of the same compound?
Answer: Its value is 20.

Question: And the “Foxtail, Giant plant response rating (0 to 100 scale, 0 is no effect, 100 is complete control)” value ([6]; Postemergence, 500 g ai/ha)?
Answer: The value was 30.

Question: And the “Plant response rating, Foxtail, Giant” value [6, 20]?
Answer: The value was 50.

Question: And the “Plant response rating, Pigweed” value [7, 18]?
Answer: Its value is 0.

Question: And the “Plant response rating, Pigweed” value [7, 19]?
Answer: Its value is 0.

Question: What about the “Pigweed plant response rating (0 to 100 scale, 0 is no effect, 100 is complete control)” value ([7]; Postemergence, 500 g ai/ha) of the same compound?
Answer: The value was 0.

Question: And the “Plant response rating, Pigweed” value [7, 20]?
Answer: Its value is 0.

Question: And the “Plant response rating, Kochia” value [8, 18]?
Answer: The value was 0.

Question: And the “Plant response rating, Kochia” value [8, 19]?
Answer: The value was 0.

Question: What about the “Kochia plant response rating (0 to 100 scale, 0 is no effect, 100 is complete control)” value ([8]; Postemergence, 500 g ai/ha) of the same compound?
Answer: Its value is 0.

Question: What about the “Plant response rating, Kochia” value [8, 20] of the same compound?
Answer: Its value is 20.

Question: And the “Plant response rating, Ryegrass, Italian” value [9, 18]?
Answer: Its value is 0.

Question: What about the “Plant response rating, Ryegrass, Italian” value [9, 19] of the same compound?
Answer: Its value is 0.

Question: And the “Ryegrass, Italian plant response rating (0 to 100 scale, 0 is no effect, 100 is complete control)” value ([9]; Postemergence, 500 g ai/ha)?
Answer: Its value is 0.

Question: And the “Plant response rating, Ryegrass, Italian” value [9, 20]?
Answer: The value was 0.

Question: And the “Plant response rating, Blackgrass” value [10, 22]?
Answer: Its value is 0.

Question: What about the “Blackgrass plant response rating (0 to 100 scale, 0 is no effect, 100 is complete control)” value ([10]; 500 g ai/ha) of the same compound?
Answer: Its value is 0.

Question: Which results are given for Cc1cc(NC(=O)C2C(=O)NCC2c2cccc(C(F)(F)F)c2)ccc1F (racemic) [Compound 185]?
Answer: Plant response rating, Ragweed [1, 18]: 0; Plant response rating, Ragweed [1, 19]: 0; Ragweed plant response rating (0 to 100 scale, 0 is no effect, 100 is complete control) ([1]; Postemergence, 500 g ai/ha): 0; Plant response rating, Ragweed [1, 20]: 0; Plant response rating, Galium [2, 21]: 0; Galium plant response rating (0 to 100 scale, 0 is no effect, 100 is complete control) [2]: 0; Plant response rating, Corn [3, 22]: 0; Corn plant response rating (0 to 100 scale, 0 is no effect, 100 is complete control) ([3]; 500 g ai/ha): 20; Plant response rating, Wheat [4, 21]: 0; Wheat plant response rating (0 to 100 scale, 0 is no effect, 100 is complete control) [4]: 20; Plant response rating, Barnyardgrass [5, 18]: 40; Plant response rating, Barnyardgrass [5, 19]: 40; Barnyardgrass plant response rating (0 to 100 scale, 0 is no effect, 100 is complete control) ([5]; Postemergence, 500 g ai/ha): 80; Plant response rating, Barnyardgrass [5, 20]: 70; Plant response rating, Foxtail, Giant [6, 18]: 70; Plant response rating, Foxtail, Giant [6, 19]: 20; Foxtail, Giant plant response rating (0 to 100 scale, 0 is no effect, 100 is complete control) ([6]; Postemergence, 500 g ai/ha): 80; Plant response rating, Foxtail, Giant [6, 20]: 90; Plant response rating, Pigweed [7, 18]: 0; Plant response rating, Pigweed [7, 19]: 0; Pigweed plant response rating (0 to 100 scale, 0 is no effect, 100 is complete control) ([7]; Postemergence, 500 g ai/ha): 0; Plant response rating, Pigweed [7, 20]: 20; Plant response rating, Kochia [8, 18]: 0; Plant response rating, Kochia [8, 19]: 0; Kochia plant response rating (0 to 100 scale, 0 is no effect, 100 is complete control) ([8]; Postemergence, 500 g ai/ha): 0; Plant response rating, Kochia [8, 20]: 40; Plant response rating, Ryegrass, Italian [9, 18]: 0; Plant response rating, Ryegrass, Italian [9, 19]: 0; Ryegrass, Italian plant response rating (0 to 100 scale, 0 is no effect, 100 is complete control) ([9]; Postemergence, 500 g ai/ha): 0; Plant response rating, Ryegrass, Italian [9, 20]: 20; Plant response rating, Blackgrass [10, 22]: 0; Blackgrass plant response rating (0 to 100 scale, 0 is no effect, 100 is complete control) ([10]; 500 g ai/ha): 20
